According to patent publication US12083109B2, “Neurokinin antagonists and uses thereof” (California Institute of Technology, priority 2017, dated 2024):
Entries after “also recorded” stand apart in the source; their conditions may differ.

Molecular target: T1, hM4DREADD in Tac2+ neurons (Homo sapiens, UniProt P08173, A203G/Y113C)
T1 construct: host or cells: Tac2+ neurons of Tac2-Cre mice (dBNSTa, DMH or CeA), transduced in vivo with AAV2-EF1a-DIO-hM4D-mCherry
T1 sequence (P08173 1-479 Y113C/A203G): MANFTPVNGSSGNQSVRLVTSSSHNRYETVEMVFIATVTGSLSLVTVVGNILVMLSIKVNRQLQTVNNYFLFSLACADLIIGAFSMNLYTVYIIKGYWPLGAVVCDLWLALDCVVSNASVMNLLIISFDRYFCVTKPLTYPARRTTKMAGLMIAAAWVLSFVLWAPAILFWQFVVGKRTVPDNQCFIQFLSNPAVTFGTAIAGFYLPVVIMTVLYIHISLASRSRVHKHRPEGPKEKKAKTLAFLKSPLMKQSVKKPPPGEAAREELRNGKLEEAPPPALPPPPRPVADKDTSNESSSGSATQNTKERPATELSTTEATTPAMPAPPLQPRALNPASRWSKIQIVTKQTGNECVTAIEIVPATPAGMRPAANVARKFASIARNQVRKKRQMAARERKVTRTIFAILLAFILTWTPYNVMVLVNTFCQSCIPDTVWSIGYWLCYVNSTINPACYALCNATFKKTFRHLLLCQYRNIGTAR
Assay: Shock reactivity, CNO silencing of Tac2+ neurons (hM4DREADD)
Format: in vivo, mouse
Details: hM4DREADD in CeA
Method: The protocol for tone trace fear conditioning was performed as previously described (Cushman et al., 2014; incorporated by reference in its entirety) using fear conditioning boxes previously described in detail (Haubensak et al., 2010; Kunwar et al., 2015; incorporated by reference in their entirety). Briefly, mice were transported in squads of four on a white cart to a novel behavioral testing room containing 4 sound-attenuating fear-conditioning chambers (Med Associates). This “training context” was comprised of flat grid flooring (wired to a shock generator and scrambler for footshock delivery, Med Associates), houselights, and the presence of an internal fan for background noise. Chambers were sprayed with 70% Simple Green solution on the underlying chamber pan to generate a unique contextual scent and chambers were cleaned with 70% EtOH between squads. […] Freezing behavior during the baseline period as well as during each tone presentation (“during”) and trace interval (“post”) were assessed as previously described (Zelikowsky et al., 2014; incorporated by reference in its entirety) using automated near-infrared video tracking equipment and computer software (VideoFreeze, Med Associates). Shock reactivity (motion, arbitrary units) was measured during the 2 second shock US as well as the 3 seconds immediately following. […]

## C[N+]1([O-])CCN(C2=Nc3cc(Cl)ccc3Nc3ccccc32)CC1 [CNO, clozapine-N-oxide]
  SIS-enhanced shock reactivity: suppressed; also recorded: attenuated
